Experimental data reported in patent US12441687B2, “Drp1-filamin complex formation inhibitors” (RDISCOVERY, LLC, priority 2019, dated 2025).

Key:
[1] = system: model mice of type 1/2 diabetes (STZ); assay: Blood sugar level in streptozotocin model mice of type 1/2 diabetes; assay type: in vivo; settings: STZ 200 mg/kg mice, osmotic pump 5,000 μg/kg from 14th day, FIG. 6
Protocol: Effects of cilnidipine on intractable disease were examined. In this Exemplary Experiment, cilnidipine was administered to model mice of type 1/2 diabetes, and the blood sugar level was measured over time. The model mice of type 1/2 diabetes employed were mice intraperitoneally administered 200 mg/kg of streptozotocin (STZ) on the 42nd day after birth. Also mouse without streptozotocin administration were prepared for comparison.
Blood sugar levels of mice in the individual groups were measured over time after the start of experiment. On the 14th day after the start of experiment, an osmotic pump containing 5,000 μg/kg of cilnidipine or the solvent only was implanted into each mouse in each group, for prolonged administration.

[2] = system: myocardial cells from the neonatal rat; assay: Evaluation of degree of mitochondrial division under hypoxia (MitoTracker Green FM, image analysis); assay type: cell-based
Protocol: A system for quantitatively evaluating degree of intracellular mitochondrial division was built. More specifically, myocardial cells obtained from a neonatal rat were cultured under normoxia (20%) or under hypoxia (1%) for 16 hours. The cells were then stained with a fluorescent dye (MitoTracker Green FM, from Thermo Fisher Scientific Inc.) that selectively stains mitochondria. The cells were observed under a fluorescent microscope, and the shape of mitochondria was quantified by image analysis.
FIG. 2(c) is a graph that illustrates length of mitochondria from the myocardial cells of a neonatal rat cultured under normoxia or hypoxia. In FIG. 2(c), “Normoxia” represents results obtained from culture under the normal oxygen concentration, and “Hypoxia” represents results obtained from culture under the low oxygen concentration. […]
Each of the aforementioned compounds was added to a culture medium of the myocardial cells from the neonatal rat, so as to adjust the final concentration to 1 μM, the cells were incubated for one hour, and further cultured under hypoxic environment for 16 hours. The cells were then stained in the same way as described in Exemplary Experiment 1 using MitoTracker Green FM (from Thermo Fischer Scientific Inc.), observed under a fluorescent microscope, and the shape of mitochondria was quantified. […]

[3] = target: Drp1-filamin complex (Homo sapiens, UniProt O00429+P21333); settings: Non Patent Literature 1; cited from earlier work
[4] = system: model mice of inflammatory bowel disease (DSS); assay: Survival of DSS-induced inflammatory bowel disease model mice; assay type: in vivo; settings: osmotic pump 25,000 μg/kg, 17 days, 3% DSS, FIG. 5(b)
Protocol: Effects of cilnidipine on intractable disease were examined. In this Exemplary Experiment, cilnidipine was administered to model mice of inflammatory bowel disease, and survival rate was examined. The model mice of inflammatory bowel disease employed were mice on which inflammatory bowel disease is inducible by administrating dextran sulfate (DSS).
FIG. 5(a) is a drawing that illustrates an experiment schedule. From three days before the administrating DSS started, an osmotic pump containing 25,000 μg/kg of cilnidipine was intraperitoneally implanted into each mouse, the drug was administered continuously over 17 days, and the survival rate was measured.
From the first day (Day 0) the cilnidipine administration started, the mice were fed tap water containing 3% DSS as a drinking water for seven days. Over a period between Day 7 after the start of cilnidipine administration to Day 14, the drinking water was reverted to ordinary tap water. Also a control group was prepared, in which the mice were fed a solvent only in place of cilnidipine.

[5] = system: SOD1-G93A mice (ALS model); assay: Survival of ALS model mice (SOD1-G93A) with cilnidipine administration; assay type: in vivo; settings: osmotic pump 5,000 μg/kg intraperitoneally implanted after onset of ALS, 28 days, FIG. 4(b)
Protocol: Effects of cilnidipine on intractable disease were examined. In this Exemplary Experiment, cilnidipine was administered to model mice of amyotrophic lateral sclerosis (ALS), and survival rate was examined. The ALS model mice employed were SOD1-G93A mice.
FIG. 4(a) is a drawing that illustrates an experiment schedule. An osmotic pump containing 5,000 μg/kg of cilnidipine was intraperitoneally implanted into each model mouse after onset of ALS, the drug was administered continuously over 28 days, and the survival rate was measured.

[6] = system: calcium channel; assay: Calcium channel blocking: intracellular calcium increase after potassium chloride stimulation in Neuro-2a cells (Fura 2-AM); assay type: cell-based, murine
Protocol: Effect of blocking the calcium channel by the cilnidipine derivative, synthesized in Exemplary Experiment 7, was examined. More specifically, first, Neuro-2a cells which belong to a cell line of murine neuroblastoma were cultured in serum-free culture media, and Fura 2-AM (from Dojindo Laboratories) as a calcium ion probe was added to the culture media, so as to transduce it into the cells.
The culture media were then replaced with HEPES buffered nutrient solution (pH7.4), and each of cilnidipine, and the individual compounds namely NS4-019, NS4-021, NS4-043, NS4-238, and NS4-700, synthesized in Exemplary Experiment 7, was added to the culture media so as to adjust the final concentrations to 0, 1, 10, 100, and 1,000 nM, and the culture media were incubated for 30 minutes.
Depolarizing stimulation was then given by adding potassium chloride solution (to a final concentration of 60 mM), and inflow of calcium ions into the cells was observed under a fluorescent microscope.
FIG. 12 is a graph that illustrates increase of intracellular calcium ion concentration after potassium chloride stimulation. In FIG. 12, “CIL” represents results obtained from the cells having cilnidipine added thereto, “NS4-238” represents results obtained from the cells having NS4-238 added thereto, and “**” represents presence of significant difference at p<0.01. […]

[7] = system: H9c2 cell overexpressing A1545T mutant of filamin A gene fused with mCherry tag; assay: Mitochondrial division promoted by overexpressed A1545T mutant of filamin A in H9c2 cells; assay type: cell-based, murine; settings: Exemplary Experiment 9, 1 μM, 24 hours, FIG. 9(b)
Source text: A disease called filamin cardiomyopathy has been known to involve A1539T mutation (substitution of adenine at position 1539 to thymine) on filamin-C gene. Then influence of A1545T mutant of filamin A gene, similar to A1539T mutant of filamin-C gene, on the shape of mitochondria of myocardial cell was examined.
(§1) An expression vector of wild type filamin A gene fused with mCherry tag, or, an expression vector of A1545T mutant of filamin A gene fused with mCherry tag was transduced into H9c2 cell, which is a murine heart striated muscle cell line, and allowed to overexpress. Also a group, having an expression vector of mCherry transduced and allowed to overexpress therein, was prepared for comparison.
(§2) The cells were cultured for 24 hours, cilnidipine or NS4-238 was added to the culture medium while adjusting the final concentration to 1 μM, and the cells were further cultured for 24 hours. Also a group having DMSO added thereto in place of the drugs was prepared for comparison.
(§3) The cells were then stained in the same way as described in Exemplary Experiment 1 using MitoTracker Green FM (from Thermo Fischer Scientific Inc.). The cells were observed under a fluorescent microscope, and the shape of mitochondria was quantified by image analysis.

[8] = system: myocardial cells from neonatal rat; assay: Aging of myocardial cell (p53 accumulation) under hypoxic-reoxygenation stimulation; assay type: cell-based; settings: Exemplary Experiment 10, 1 μM, hypoxic (1%) 18 hours then normoxic (21%) 18 hours, FIG. 10
Protocol: How the cilnidipine derivatives, synthesized in Exemplary Experiment 7, can affect aging of myocardial cell was examined. Aging of myocardial cell was evaluated on the basis of accumulation of p53 protein. More specifically, each of cilnidipine, and the individual compounds namely NS4-019, NS4-021 and NS4-043, synthesized in Exemplary Experiment 7, was added to a culture medium of the myocardial cells from neonatal rat, so as to adjust the final concentration to 1 μM, and the cells were incubated for one hour. The cells were then subjected to hypoxic-reoxygenation stimulation, by cultivation under hypoxic (1%) environment for 18 hours, followed by cultivation under normoxic (21%) environment for 18 hours. The cells in each culture were then fixed with 4% paraformaldehyde, and immunostained with anti-p53 antibody and anti-α-actinin antibody. α-Actinin is a marker of myocardial cell. The cells in each culture were observed under a fluorescent microscope, and percentage of p53 accumulating cells relative to the α-actinin-positive cells was determined.

[9] = system: hypertensive and hyperglycemic patients; assay: Retrospective analysis of blood HbA1c in hypertensive and hyperglycemic patients; assay type: in vivo, human; settings: patients administered cilnidipine compared with patients administered amlodipine, FIG. 7
Protocol: Effects of cilnidipine on intractable disease were examined. The results shown in this Exemplary Experiment were obtained from retrospective analyses on patients in Kyushu University Hospital. In this Exemplary Experiment, percentages of blood HbA1c in hypertensive and hyperglycemic patients administered amlodipine, and in hypertensive and hyperglycemic patients administered cilnidipine, were evaluated.

[10] = system: H9c2 cell overexpressing wild type filamin A gene fused with mCherry tag; assay: Mitochondrial division promoted by overexpressed wild type filamin A in H9c2 cells; assay type: cell-based, murine; settings: Exemplary Experiment 9, 1 μM, 24 hours, FIG. 9(b)
Protocol: as §1, §2, §3

Sequence of Drp1-filamin complex (O00429 whole entry): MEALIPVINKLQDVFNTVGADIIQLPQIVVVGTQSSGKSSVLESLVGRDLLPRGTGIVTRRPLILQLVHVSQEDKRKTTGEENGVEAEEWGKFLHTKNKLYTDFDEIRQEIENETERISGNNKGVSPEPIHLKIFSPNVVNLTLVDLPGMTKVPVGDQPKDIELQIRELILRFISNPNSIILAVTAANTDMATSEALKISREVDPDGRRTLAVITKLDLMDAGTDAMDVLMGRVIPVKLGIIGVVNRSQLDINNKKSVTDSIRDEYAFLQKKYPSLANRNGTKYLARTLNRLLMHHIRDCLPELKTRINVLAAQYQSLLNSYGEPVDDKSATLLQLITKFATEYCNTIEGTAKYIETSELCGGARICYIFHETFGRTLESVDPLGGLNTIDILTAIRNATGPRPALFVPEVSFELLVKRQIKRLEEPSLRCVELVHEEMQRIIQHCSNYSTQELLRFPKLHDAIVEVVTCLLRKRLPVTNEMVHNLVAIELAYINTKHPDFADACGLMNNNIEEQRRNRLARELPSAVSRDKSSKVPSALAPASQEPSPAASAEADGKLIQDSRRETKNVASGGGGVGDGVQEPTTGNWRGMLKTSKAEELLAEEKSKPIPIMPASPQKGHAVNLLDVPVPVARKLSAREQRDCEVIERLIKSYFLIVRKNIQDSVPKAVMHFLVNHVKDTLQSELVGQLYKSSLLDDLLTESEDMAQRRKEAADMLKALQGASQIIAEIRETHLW
Sequence of Drp1-filamin complex (P21333 whole entry): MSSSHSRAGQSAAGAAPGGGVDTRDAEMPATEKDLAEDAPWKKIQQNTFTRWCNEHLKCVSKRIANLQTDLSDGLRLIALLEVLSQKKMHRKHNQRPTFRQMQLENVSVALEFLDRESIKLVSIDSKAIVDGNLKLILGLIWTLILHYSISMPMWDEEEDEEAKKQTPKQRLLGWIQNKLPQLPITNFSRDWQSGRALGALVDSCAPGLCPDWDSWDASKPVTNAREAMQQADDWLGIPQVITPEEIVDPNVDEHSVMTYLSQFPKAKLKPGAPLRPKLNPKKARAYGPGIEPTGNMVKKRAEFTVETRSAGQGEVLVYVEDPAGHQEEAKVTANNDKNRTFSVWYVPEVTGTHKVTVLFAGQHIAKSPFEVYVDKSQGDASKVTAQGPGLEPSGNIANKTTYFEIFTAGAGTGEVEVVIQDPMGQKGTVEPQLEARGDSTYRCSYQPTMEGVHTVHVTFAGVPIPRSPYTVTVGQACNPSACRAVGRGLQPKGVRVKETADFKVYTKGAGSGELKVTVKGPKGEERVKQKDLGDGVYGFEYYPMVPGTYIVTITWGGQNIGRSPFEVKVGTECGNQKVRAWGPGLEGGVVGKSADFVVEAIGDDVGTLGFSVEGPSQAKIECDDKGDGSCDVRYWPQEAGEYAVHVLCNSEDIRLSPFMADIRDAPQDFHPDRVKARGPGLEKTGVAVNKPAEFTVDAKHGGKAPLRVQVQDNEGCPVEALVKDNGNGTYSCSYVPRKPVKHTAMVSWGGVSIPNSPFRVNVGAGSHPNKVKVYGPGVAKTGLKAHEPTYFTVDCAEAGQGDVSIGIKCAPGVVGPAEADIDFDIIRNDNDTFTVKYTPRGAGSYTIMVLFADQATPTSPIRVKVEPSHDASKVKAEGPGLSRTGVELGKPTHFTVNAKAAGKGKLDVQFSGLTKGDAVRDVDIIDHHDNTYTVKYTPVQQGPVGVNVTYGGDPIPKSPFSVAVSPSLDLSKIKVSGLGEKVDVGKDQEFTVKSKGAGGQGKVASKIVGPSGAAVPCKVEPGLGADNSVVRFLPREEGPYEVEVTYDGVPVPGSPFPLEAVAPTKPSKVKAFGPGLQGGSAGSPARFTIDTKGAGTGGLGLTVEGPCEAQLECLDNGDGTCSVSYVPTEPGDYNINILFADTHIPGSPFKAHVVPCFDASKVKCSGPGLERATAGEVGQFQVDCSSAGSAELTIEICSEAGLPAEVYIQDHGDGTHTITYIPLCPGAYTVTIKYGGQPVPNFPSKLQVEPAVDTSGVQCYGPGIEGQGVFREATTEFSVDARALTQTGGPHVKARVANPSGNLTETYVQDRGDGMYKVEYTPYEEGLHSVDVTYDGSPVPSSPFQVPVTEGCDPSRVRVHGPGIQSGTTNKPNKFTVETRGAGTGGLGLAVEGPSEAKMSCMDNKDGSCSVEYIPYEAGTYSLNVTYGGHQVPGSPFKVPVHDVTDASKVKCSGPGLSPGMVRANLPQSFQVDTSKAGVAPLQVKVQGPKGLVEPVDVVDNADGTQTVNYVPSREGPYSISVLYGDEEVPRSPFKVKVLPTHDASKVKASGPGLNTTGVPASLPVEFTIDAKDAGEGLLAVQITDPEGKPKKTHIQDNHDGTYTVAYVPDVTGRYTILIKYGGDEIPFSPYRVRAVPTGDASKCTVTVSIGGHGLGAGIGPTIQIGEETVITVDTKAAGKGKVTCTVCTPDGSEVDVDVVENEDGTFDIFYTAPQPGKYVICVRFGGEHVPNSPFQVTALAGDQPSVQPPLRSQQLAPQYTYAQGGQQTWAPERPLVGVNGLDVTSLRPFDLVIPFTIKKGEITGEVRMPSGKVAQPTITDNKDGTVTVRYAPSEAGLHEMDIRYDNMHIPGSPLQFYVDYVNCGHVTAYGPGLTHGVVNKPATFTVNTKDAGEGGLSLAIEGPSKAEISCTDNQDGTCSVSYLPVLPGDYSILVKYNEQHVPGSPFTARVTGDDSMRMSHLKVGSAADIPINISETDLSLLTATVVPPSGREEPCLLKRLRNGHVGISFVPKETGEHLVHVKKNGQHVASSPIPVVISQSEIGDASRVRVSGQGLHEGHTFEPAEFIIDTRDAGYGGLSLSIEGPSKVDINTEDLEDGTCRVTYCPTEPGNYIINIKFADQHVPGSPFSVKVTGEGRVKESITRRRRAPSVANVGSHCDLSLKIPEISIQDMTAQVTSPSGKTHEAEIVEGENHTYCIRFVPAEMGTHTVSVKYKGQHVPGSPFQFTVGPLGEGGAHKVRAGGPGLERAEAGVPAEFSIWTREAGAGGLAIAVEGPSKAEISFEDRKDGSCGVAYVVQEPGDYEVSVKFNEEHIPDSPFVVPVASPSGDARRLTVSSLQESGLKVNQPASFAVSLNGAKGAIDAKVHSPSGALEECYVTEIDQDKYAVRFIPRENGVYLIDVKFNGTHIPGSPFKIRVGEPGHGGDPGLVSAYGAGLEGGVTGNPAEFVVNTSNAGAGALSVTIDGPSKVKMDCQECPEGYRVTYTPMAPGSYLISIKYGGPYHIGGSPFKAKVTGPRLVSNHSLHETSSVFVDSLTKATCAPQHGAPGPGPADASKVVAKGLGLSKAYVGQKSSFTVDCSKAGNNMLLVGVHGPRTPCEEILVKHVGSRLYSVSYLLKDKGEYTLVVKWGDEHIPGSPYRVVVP

COCCOC(=O)C1=C(C)NC(C)=C(C(=O)OC/C=C/c2ccccc2)C1c1cccc([N+](=O)[O-])c1 (stereo not drawn) [cilnidipine]
blood sugar level [1]: blood sugar level getting closer to the normal level | percentage of cells having vesicular mitochondria (suppression of mitochondrial division) ([2]; Exemplary Experiment 2, 1 μM, hypoxic environment 16 hours, FIG. 3): significantly suppress mitochondrial division | percentage of cells having vesicular mitochondria (suppression of mitochondrial division) ([2]; Exemplary Experiment 11, 1 μM, hypoxic environment 18 hours, FIG. 11): significantly suppress mitochondrial division | inhibition of formation of the Drp1-filamin complex [3]: inhibits formation of the Drp1-filamin complex | survival rate [4]: significant increase of the survival rate | survival rate [5]: significant elongation of lifetime | blocking effect on the calcium channel (ΔRatio, increase of intracellular calcium ion concentration) ([6]; Exemplary Experiment 12, 0, 1, 10, 100, and 1,000 nM, 30 minutes, 60 mM potassium chloride, FIG. 12): showed blocking effects exerted on the calcium channel | blocking effect on the calcium channel (ΔRatio) ([6]; Exemplary Experiment 15, at 1000 nM, FIG. 15): showed blocking effects on the calcium channel | average length of mitochondrial fragments (suppression of mitochondrial division) [7]: could not suppress mitochondrial division | percentage of p53 accumulating cells relative to α-actinin-positive cells (aging of myocardial cell) [8]: suppressive effects over aging of myocardial cell | percentage of blood HbA1c [9]: significant decrease of HbA1c | average length of mitochondrial fragments (suppression of mitochondrial division) [10]: could not suppress mitochondrial division
